Test results: BindingDB's records for doi:10.7270/Q2N58JS6 (University of Pittsburgh, 2007)

Biological target: Serine/threonine-protein kinase PLK1 (Homo sapiens, UniProt P53350)
Test: H2O2 production by redox-active compounds – biochemical, 1 mM DTT, artefact control for Plk1 PBD inhibitor project, dose response (AID 936)

Sequence of Serine/threonine-protein kinase PLK1 (P53350 whole entry): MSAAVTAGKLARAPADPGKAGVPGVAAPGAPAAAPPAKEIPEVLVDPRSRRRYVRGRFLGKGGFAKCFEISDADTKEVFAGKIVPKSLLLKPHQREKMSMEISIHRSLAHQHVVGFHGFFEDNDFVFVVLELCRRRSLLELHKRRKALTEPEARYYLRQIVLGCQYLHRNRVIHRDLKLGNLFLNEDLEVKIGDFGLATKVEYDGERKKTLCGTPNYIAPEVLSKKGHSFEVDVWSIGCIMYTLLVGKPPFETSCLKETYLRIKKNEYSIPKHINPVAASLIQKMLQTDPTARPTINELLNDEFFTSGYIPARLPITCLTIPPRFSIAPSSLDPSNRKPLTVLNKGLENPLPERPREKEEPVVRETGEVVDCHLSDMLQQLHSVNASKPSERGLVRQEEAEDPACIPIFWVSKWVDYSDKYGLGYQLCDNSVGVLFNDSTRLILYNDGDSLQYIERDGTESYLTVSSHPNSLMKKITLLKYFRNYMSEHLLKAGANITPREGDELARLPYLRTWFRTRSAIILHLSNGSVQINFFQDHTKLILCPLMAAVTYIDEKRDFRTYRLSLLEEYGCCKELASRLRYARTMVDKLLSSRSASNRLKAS

**Q.** With `CC(C)N(Cc1cc2ccccc2[nH]c1=O)C(=O)c1cccnc1` [N-[(2-oxo-1H-quinolin-3-yl)methyl]-N-propan-2-ylpyridine-3-carboxamide] as the molecule, how does the EC50 read?
**A.** Its EC50 is over 50 µM.

**Q.** For `O=C1CCN2C=Nc3cccc4ccc1c2c34` [7,8-dihydro-9H-pyrido[1,2,3-cd]perimidin-9-one], which EC50 is on record?
**A.** Its EC50 is over 50 µM.

**Q.** Which EC50 does the source give for `O=C1Nc2ccc([N+](=O)[O-])cc2C1(O)N1CCCCC1` (stereo unspecified) [3-hydroxy-5-nitro-3-(1-piperidinyl)-1,3-dihydro-2H-indol-2-one] here?
**A.** The EC50 was over 50 µM.

**Q.** Which EC50 does the source give for `Cc1ccccc1NS(=O)(=O)c1cc(C(=O)NCc2ccco2)ccc1C` [MLS000052108] here?
**A.** Its EC50 is over 50 µM.

**Q.** With `Cc1cccc(C)c1NC1=NC(=S)N(c2ccccc2)C12CCOC(C)(C)C2` (stereo unspecified) [4-(2,6-dimethylanilino)-7,7-dimethyl-1-phenyl-8-oxa-1,3-diazaspiro[4.5]dec-3-ene-2-thione] as the molecule, how does the EC50 read?
**A.** The EC50 was over 50 µM.

**Q.** How did the EC50 turn out when `CC1(C)CC(=O)C=C(NCc2ccncc2)C1` [5,5-dimethyl-3-(4-pyridylmethylamino)cyclohex-2-en-1-one] was run?
**A.** The EC50 was over 50 µM.

**Q.** For `OCC(CO)(CO)N=Cc1cc(Br)ccc1O` [(6E)-4-bromanyl-6-[[[2-(hydroxymethyl)-1,3-bis(oxidanyl)propan-2-yl]amino]methylidene]cyclohexa-2,4-dien-1-one], which EC50 is on record?
**A.** The EC50 was over 50 µM.

**Q.** Which EC50 does the source give for `CC(C)=CC(=O)NCCc1ccccc1` [MLS000089152] here?
**A.** The EC50 was over 50 µM.

**Q.** Which EC50 does the source give for `O=C(CN1C(=O)COc2ccccc21)NCc1ccc(C(=O)O)cc1` [4-[[2-(3-oxidanylidene-1,4-benzoxazin-4-yl)ethanoylamino]methyl]benzoic acid] here?
**A.** The EC50 was over 50 µM.

**Q.** Which EC50 does the source give for `COc1ccc(Nc2oc(-c3ccccc3Cl)nc2C#N)cc1` [2-(2-chlorophenyl)-5-(4-methoxyanilino)-1,3-oxazole-4-carbonitrile] here?
**A.** Its EC50 is over 50 µM.

**Q.** With `Cc1ccc(C(=O)Nc2cnc3sc(C)nn3c2=O)cc1` [4-methyl-N-(2-methyl-5-oxidanylidene-[1,3,4]thiadiazolo[3,2-a]pyrimidin-6-yl)benzamide] as the molecule, how does the EC50 read?
**A.** Its EC50 is over 50 µM.

**Q.** How did the EC50 turn out when `Cc1ccc(-n2c(O)c(C=NCCN3CCOCC3)c(=O)[nH]c2=O)cc1` was run?
**A.** Its EC50 is over 50 µM.

**Q.** With `Cn1c(=O)c(NCCO)c2c3c(cccc31)C(=O)c1ccccc1-2` [1-(2-Hydroxy-ethylamino)-3-methyl-3H-naphtho[1,2,3-de]quinoline-2,7-dione] as the molecule, how does the EC50 read?
**A.** The EC50 was over 50 µM.

**Q.** Which EC50 does the source give for `Cn1nc(-c2ccc(Cl)cc2)nc2c(=O)n(C)c(=O)nc1-2` [3-(4-Chloro-phenyl)-1,6-dimethyl-1H-pyrimido[5,4-e][1,2,4]triazine-5,7-dione] here?
**A.** Its EC50 is over 50 µM.

**Q.** `O=C(CNS(=O)(=O)c1ccc(Br)s1)N1CCCC1` [5-bromanyl-N-(2-oxidanylidene-2-pyrrolidin-1-yl-ethyl)thiophene-2-sulfonamide] was tested. Which EC50 did it give?
**A.** The EC50 was over 50 µM.

**Q.** `CS(=O)(=O)N1CCN(C/C=C/c2ccccc2)CC1` [1-(methylsulfonyl)-4-(3-phenyl-2-propen-1-yl)piperazine] was tested. Which EC50 did it give?
**A.** The EC50 was over 50 µM.

**Q.** With `CC1Cc2ccccc2N1C(=O)c1ccc2c(c1)nnn2C` (stereo unspecified) [(1-methyl-5-benzotriazolyl)-(2-methyl-2,3-dihydroindol-1-yl)methanone] as the molecule, how does the EC50 read?
**A.** Its EC50 is over 50 µM.

**Q.** How did the EC50 turn out when `Cc1ccc(Cl)cc1N1CCN(S(=O)(=O)c2ccc3c(c2)oc(=O)n3C)CC1` [6-[4-(5-chloranyl-2-methyl-phenyl)piperazin-1-yl]sulfonyl-3-methyl-1,3-benzoxazol-2-one] was run?
**A.** The EC50 was over 50 µM.

**Q.** `O=C1CN(c2ccc(Br)cc2)C(=O)N1CC(=O)N1CCCc2ccccc21` [1-(4-bromophenyl)-3-[2-(3,4-dihydro-1(2H)-quinolinyl)-2-oxoethyl]-2,4-imidazolidinedione] was tested. Which EC50 did it give?
**A.** The EC50 was over 50 µM.

**Q.** Which EC50 does the source give for `Cc1ccc(NC(=O)C2CC=CCC2C(=O)N2CCCCC2)cc1` (stereo unspecified) [6-(Piperidine-1-carbonyl)-cyclohex-3-enecarboxylic acid p-tolylamide] here?
**A.** Its EC50 is over 50 µM.

**Q.** Which EC50 does the source give for `COC(=O)CCc1c(C)[nH]c(=S)[nH]c1=O` [3-(6-methyl-4-oxo-2-sulfanylidene-1H-pyrimidin-5-yl)propanoic acid methyl ester] here?
**A.** Its EC50 is over 50 µM.

**Q.** Which EC50 does the source give for `CC(C)Nc1nnc(SCC(=O)c2c(N)n(Cc3ccccc3)c(=O)n(C)c2=O)s1` [6-amino-1-benzyl-3-methyl-5-[2-[[5-(propan-2-ylamino)-1,3,4-thiadiazol-2-yl]sulfanyl]acetyl]pyrimidine-2,4-dione] here?
**A.** The EC50 was over 50 µM.

**Q.** For `O=C(O)C1CCCCC1C(=O)Nc1ccc2c(c1)OCCO2` (stereo unspecified) [2-(2,3-dihydro-1,4-benzodioxin-6-ylcarbamoyl)cyclohexane-1-carboxylic acid], which EC50 is on record?
**A.** The EC50 was over 50 µM.

**Q.** `Cc1ccc2cc(C(c3nnnn3C3CCCC3)N3CCN(c4ccccc4)CC3)c(=O)[nH]c2c1` (stereo unspecified) [3-[(1-cyclopentyltetrazol-5-yl)-(4-phenylpiperazin-1-yl)methyl]-7-methyl-1H-quinolin-2-one] was tested. Which EC50 did it give?
**A.** Its EC50 is over 50 µM.

**Q.** Which EC50 does the source give for `CCn1ccc(C(=O)Nc2ccc(N(C)C(C)=O)cc2)n1` [MLS000043435] here?
**A.** Its EC50 is over 50 µM.

**Q.** Which EC50 does the source give for `CC(=O)N(N=C1Sc2ccccc2C1=O)c1ccccc1C` [N-(2-methylphenyl)-N-[(3-oxo-1-benzothiophen-2-ylidene)amino]acetamide] here?
**A.** The EC50 was over 50 µM.

**Q.** How did the EC50 turn out when `O=C1C(=C2C(=O)c3ccccc3C2=O)Nc2ccccc21` [MLS000071738] was run?
**A.** The EC50 was over 50 µM.

**Q.** With `CCC(=O)Nc1ccccc1C(=O)NC1CCCCC1` [MLS000538265] as the molecule, how does the EC50 read?
**A.** Its EC50 is over 50 µM.

**Q.** For `O=C(CC1C(=O)NCCN1C(=S)Nc1ccccc1)Nc1ccc2c(c1)OCCO2` (stereo unspecified) [2-[1-(anilinocarbonothioyl)-3-oxo-2-piperazinyl]-N-(2,3-dihydro-1,4-benzodioxin-6-yl)acetamide], which EC50 is on record?
**A.** Its EC50 is over 50 µM.

**Q.** For `COc1ccccc1C1SCCN1S(=O)(=O)c1cccc(C(F)(F)F)c1` (stereo unspecified) [2-(2-Methoxy-phenyl)-3-(3-trifluoromethyl-benzenesulfonyl)-thiazolidine], which EC50 is on record?
**A.** Its EC50 is over 50 µM.

**Q.** How did the EC50 turn out when `NC(=O)Cn1c(S(=O)(=O)Cc2ccccc2)nc2ccccc21` [2-(2-benzylsulfonylbenzimidazol-1-yl)acetamide] was run?
**A.** Its EC50 is over 50 µM.

**Q.** For `CCCSc1nc(N2CCOCC2)c2c(c1C#N)CCCC2` [1-(4-morpholinyl)-3-(propylthio)-5,6,7,8-tetrahydroisoquinoline-4-carbonitrile], which EC50 is on record?
**A.** Its EC50 is over 50 µM.

**Q.** For `Cc1ccc(OCC(=O)Nc2ccc(N3CCOCC3)cc2)cc1` [2-(4-methylphenoxy)-N-(4-morpholin-4-ylphenyl)acetamide], which EC50 is on record?
**A.** Its EC50 is over 50 µM.

**Q.** With `Cc1cc(C)n(-c2nnc3n2N=C(c2ccccc2)CS3)n1` [3-(3,5-dimethyl-1-pyrazolyl)-6-phenyl-7H-[1,2,4]triazolo[3,4-b][1,3,4]thiadiazine] as the molecule, how does the EC50 read?
**A.** The EC50 was over 50 µM.

**Q.** With `CCn1cnc2sc(C(=O)N3CCN(c4ccc(OC)cc4)CC3)c(C)c2c1=O` [3-ethyl-6-[4-(4-methoxyphenyl)piperazin-1-yl]carbonyl-5-methyl-thieno[2,3-d]pyrimidin-4-one] as the molecule, how does the EC50 read?
**A.** The EC50 was over 50 µM.

**Q.** `CC(=O)N1CCc2cc(Br)cc(S(=O)(=O)NCc3ccccn3)c21` [1-acetyl-5-bromo-N-(2-pyridinylmethyl)-2,3-dihydroindole-7-sulfonamide] was tested. Which EC50 did it give?
**A.** The EC50 was over 50 µM.

**Q.** `Fc1ccc(Cn2nnnc2CN2CCN(C3CCCC3)CC2)cc1` [1-Cyclopentyl-4-[1-(4-fluoro-benzyl)-1H-tetrazol-5-ylmethyl]-piperazine] was tested. Which EC50 did it give?
**A.** The EC50 was over 50 µM.

**Q.** How did the EC50 turn out when `O=C(CN1C(=O)c2ccccc2C1=O)N1CCN(c2nnc(-c3ccccc3)c3ccccc23)CC1` [2-[2-keto-2-[4-(4-phenylphthalazin-1-yl)piperazino]ethyl]isoindoline-1,3-quinone] was run?
**A.** The EC50 was over 50 µM.

**Q.** `O=C(NC(NC(=S)Nc1ccc(Cl)cc1Cl)C(Cl)(Cl)Cl)c1cccc([N+](=O)[O-])c1` (stereo unspecified) [3-nitro-N-[2,2,2-trichloro-1-({[(2,4-dichlorophenyl)amino]carbonothioyl}amino)ethyl]benzamide] was tested. Which EC50 did it give?
**A.** The EC50 was 28.2 µM.

**Q.** Which EC50 does the source give for `O=C(Cc1ccc(Cl)cc1)NCCN1CCCC1` [2-(4-Chloro-phenyl)-N-(2-pyrrolidin-1-yl-ethyl)-acetamide] here?
**A.** Its EC50 is over 50 µM.

**Q.** `Cc1cccc(-n2c(CCn3nc(C)c([N+](=O)[O-])c3C)n[nH]c2=S)c1` [3-(2-{4-nitro-3,5-dimethyl-1H-pyrazol-1-yl}ethyl)-4-(3-methylphenyl)-5-sulfanyl-4H-1,2,4-triazole] was tested. Which EC50 did it give?
**A.** Its EC50 is over 50 µM.

**Q.** How did the EC50 turn out when `O=C(Nc1nc2ccccc2s1)c1cc2c(s1)-c1ccccc1OC2` [MLS000522634] was run?
**A.** Its EC50 is over 50 µM.

**Q.** `O=[N+]([O-])c1ccc(N2CCNCC2)cc1NCC1CCCO1` (stereo unspecified) [(2-nitro-5-piperazino-phenyl)-(tetrahydrofurfuryl)amine] was tested. Which EC50 did it give?
**A.** The EC50 was over 50 µM.

**Q.** How did the EC50 turn out when `CCOc1ccccc1N1CCN(C2=C(NS(=O)(=O)c3cccs3)C(=O)c3ccccc3C2=O)CC1` [MLS000551587] was run?
**A.** Its EC50 is over 50 µM.

**Q.** With `CCC(=O)N1CCN(c2ccc(NC(=O)c3ccc4c(c3)OCO4)cc2)CC1` [Benzo[1,3]dioxole-5-carboxylic acid [4-(4-propionyl-piperazin-1-yl)-phenyl]-amide] as the molecule, how does the EC50 read?
**A.** Its EC50 is over 50 µM.

**Q.** How did the EC50 turn out when `COc1ccc(Cn2c(=O)sc3ccccc32)cc1` [3-(4-Methoxy-benzyl)-3H-benzothiazol-2-one] was run?
**A.** Its EC50 is over 50 µM.

**Q.** `CC(C)(C)NC(=O)CC(CC(=O)O)c1ccccc1` (stereo unspecified) [5-(tert-butylamino)-5-keto-3-phenyl-valeric acid] was tested. Which EC50 did it give?
**A.** Its EC50 is over 50 µM.

**Q.** With `Cc1nc2c(=O)n(C)c(=O)nc-2n(C)n1` [1,3,6-Trimethyl-1H-pyrimido[5,4-e][1,2,4]triazine-5,7-dione] as the molecule, how does the EC50 read?
**A.** The EC50 was over 50 µM.

**Q.** `NC(=O)C1CCN(C2=C(Cl)C(=O)c3ccccc3C2=O)CC1` [SMR000180199] was tested. Which EC50 did it give?
**A.** Its EC50 is over 50 µM.

**Q.** How did the EC50 turn out when `COc1ccc(N(C)C2=NS(=O)(=O)c3ccccc32)cc1` [(1,1-Dioxo-1H-1lambda*6*-benzo[d]isothiazol-3-yl)-(4-methoxy-phenyl)-methyl-amine] was run?
**A.** The EC50 was over 50 µM.

**Q.** For `CCOCCCNC(=O)CCCOc1ccccc1` [MLS000088375], which EC50 is on record?
**A.** The EC50 was over 50 µM.

**Q.** With `Cn1c(-c2cc3ccc(OC(=O)C(C)(C)C)cc3oc2=O)nc2ccccc21` [2,2-Dimethyl-propionic acid 3-(1-methyl-1H-benzoimidazol-2-yl)-2-oxo-2H-chromen-7-yl ester] as the molecule, how does the EC50 read?
**A.** Its EC50 is over 50 µM.

**Q.** Which EC50 does the source give for `CCOC(=O)c1cc2n(c1N)-c1ccccc1C2=O` [1-amino-4-keto-pyrrol[1,2-a]indole-2-carboxylic acid ethyl ester] here?
**A.** Its EC50 is over 50 µM.

**Q.** For `COc1ccc(CC2NCCC3(O)CCCCC23)cc1` (stereo unspecified) [1-(4-Methoxy-benzyl)-octahydro-isoquinolin-4a-ol], which EC50 is on record?
**A.** The EC50 was over 50 µM.

**Q.** Which EC50 does the source give for `CCn1c(SCC(N)=O)nnc1-c1ccc(S(=O)(=O)N2CCN(C)CC2)cc1` [2-[[4-ethyl-5-[4-(4-methylpiperazin-1-yl)sulfonylphenyl]-1,2,4-triazol-3-yl]sulfanyl]acetamide] here?
**A.** The EC50 was over 50 µM.

**Q.** `CC1CCCC(NC2CCCCNC2=O)C1` (stereo unspecified) [3-[(3-methylcyclohexyl)amino]-2-azepanone] was tested. Which EC50 did it give?
**A.** Its EC50 is over 50 µM.
